Experiment [1] is described as follows: inhibitors of PGC1a acetylation in cells, dose response, cell-based, cherry-picked samples (AID 720514).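 Further: potency may reflect raised or lowered acetylation signal.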 It counts as functional.
Experiment [2] is described as follows: HepG2 cell cytotoxicity, dose response, cytotoxicity control, cherry-picked samples (AID 1159577). It counts as functional, cell-based.
Experiment [3] in a line: P. falciparum Dd2 growth inhibitors, dose response, SYBR Green, cherry-picked samples (AID 1159567). It counts as functional, cell-based.
Experiment [4] can be described thus: IOSE-T80 ovarian epithelial cell cytotoxicity, dose response, cytotoxicity control for PAX8 inhibitor project, plate reader, dry powder samples (AID 743045). It counts as functional, cell-based.
A further experiment addresses Paired box protein Pax-8 (Homo sapiens, UniProt Q06710). Briefly: inhibitors of PAX8-driven TPO luciferase reporter, dose response, RMG-I cells, cherry-pick (AID 687027).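 Further: luciferase reporter driven by Pax8 target thyroperoxidase promoter measured by SteadyGlo luminescence.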 It counts as functional, cell-based.
The nature of experiment [5]: NIH:OVCAR-3 ovarian cancer cell cytotoxicity, dose response, PAX8 inhibitor project, plate reader, dry powder samples (AID 743044). It counts as functional, cell-based.
The nature of experiment [6]: cytotoxicity in OVCAR8 ovarian cancer cells, dose response, PAX8 project, cell-based, plate reader, dry powder samples (AID 743197). As to conditions: OVCAR-8. It counts as functional.
The nature of experiment [7]: non-specific cell cytotoxicity, dose response, cytotoxicity control for PAX8 inhibitor project, plate reader, dry powder samples (AID 743021). It counts as functional, cell-based.
Experiment [8] can be described thus: endogenous miR-122 level reduction, dose response, orthogonal assay for miR-122 inhibitor project, cell-based, Huh7, RT-qPCR, dry powder (AID 687041). It counts as functional. Background: Quantitative PCR measures a nucleic acid by following its amplification.
Experiment [9] in a line: HEp-2 cell cytotoxicity, dose response, cytotoxicity control for RSV inhibitor project, HTS (AID 2410). It counts as functional. As to conditions: human respiratory syncytial virus.
Experiment [10] can be described thus: RKO cell viability reduction, dose response, CellTiter-Glo luminescence (AID 1117322). It counts as functional. (ATP-based viability assays read luminescence as a measure of living cells.)
The nature of experiment [11]: Concentration-dependent survival of SW480 colon cancer line, luminescence detection with CellTiter-Glo, half-maximal inhibitory concentration (AID 1117338). It counts as functional.
Experiment [12] is described as follows: cytotoxicity toward Colo320 cells – cell-based, CellTiter-Glo luminescence, IC50, dose response (AID 1117334). It counts as functional. As to conditions: COLO 320.
The nature of experiment [13]: CellTiter-Glo luminescent dose response of DLD-1 viability loss (AID 1117352). It counts as functional.
Experiment [14] in a line: cytotoxicity toward HCT116 cells – cell-based, CellTiter-Glo luminescence, IC50, dose response (AID 1117332). It counts as functional. As to conditions: HCT-116.
Experiment [15] in a line: SNU-C1 cell viability reduction, dose response, CellTiter-Glo luminescence (AID 1117323). It counts as functional, cell-based.
Experiment [16] can be described thus: cytotoxicity toward HT-29 cells – cell-based, CellTiter-Glo luminescence, IC50, dose response (AID 1117330). It counts as functional.
A short description of experiment [17]: TB: CFU replicating Measured in Microorganism System Using Imaging - 7108-05_Inhibitor_Dose_DryPowder_Activity_Set2. It counts as functional.
Another experiment relates to HEK293. Briefly: HEK293T cell cytotoxicity, dose response, cytotoxicity control, ATP luminescence, cherry-pick samples (AID 687005).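 Further: cells exposed to compound for 48 hours.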 It counts as functional, cell-based. As to conditions: Homo sapiens.
The nature of experiment [18]: HEK293 Cytotoxicity Assay Measured in Cell-Based System Using Plate Reader - 7071-01_Inhibitor_Dose_CherryPick_Activity_Set2. It counts as functional.
Experiment [19] can be described thus: A2780 ovarian cancer cell cytotoxicity, dose response, cytotoxicity control, plate reader, dry powder samples (AID 743046). It counts as functional, cell-based.

Calls of active or inactive are those of the source.

Broadly, the AC50 is the midpoint of the concentration-response curve, whichever way the signal moves. The IC50 is the point on the concentration scale where inhibition reaches its midpoint. By CC50 is commonly meant the concentration that lowers cell viability or growth by half.

Chain of Paired box protein Pax-8 (Q06710 whole entry): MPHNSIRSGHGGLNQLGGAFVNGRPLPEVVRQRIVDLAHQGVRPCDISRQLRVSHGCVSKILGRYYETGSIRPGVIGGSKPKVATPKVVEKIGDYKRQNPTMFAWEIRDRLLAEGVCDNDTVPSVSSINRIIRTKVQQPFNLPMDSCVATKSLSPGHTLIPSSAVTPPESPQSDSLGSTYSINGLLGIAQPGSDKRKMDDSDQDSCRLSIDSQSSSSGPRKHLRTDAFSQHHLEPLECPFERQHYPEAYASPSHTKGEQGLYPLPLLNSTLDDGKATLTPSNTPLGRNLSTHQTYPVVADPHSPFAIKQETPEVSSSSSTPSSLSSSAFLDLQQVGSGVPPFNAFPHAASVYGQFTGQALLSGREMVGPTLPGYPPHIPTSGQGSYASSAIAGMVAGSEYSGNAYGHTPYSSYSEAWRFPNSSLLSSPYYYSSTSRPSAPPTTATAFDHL

For the molecule `Cc1ccc(-c2ccc([C@@H]3[C@@H]4CN(C(=O)Nc5ccc(C(F)(F)F)cc5)C[C@H]3N4)cc2)cc1`, the AC50 in experiment [1] is 6.73 µM (active); in experiment [2], 2.72 µM (active); in experiment [3], 2.33 µM (active); in experiment [4] it was 11.3 µM (active); on Paired box protein Pax-8, 3.06 µM (active); in experiment [5] it was 17 µM (active). Moreover, the AC50 in experiment [6] was 22.8 µM (active); in experiment [7], 14 µM (active).

With `CC1CCCCN1C(=O)c1cc2nc(-c3ccccc3)cc(-c3ccccc3)n2n1` (centres undefined), the AC50 in [8] is 1.13 µM (active). Further, in the experiment “cells”, the concentration for half-maximal inhibition (IC50) was 19.3 µM (active). Further, the CC50 in experiment [9] is 15.6 µM (active).

As for `CCn1cc(C(=O)O)c(=O)c2cnc(N3CCNCC3)nc21` [PIPEMIDIC ACID], the IC50 in experiment [10], in experiment [11], in experiment [12], in [13], in experiment [14] and in experiment [15] was > 20 µM (inactive) throughout. For the same molecule, the IC50 in [16] was > 20 µM (inactive).

`Cn1c(-n2c(=O)nc3n(C)c4ccccc4n3c2=O)nc2ccccc21` registered an AbsAC90 in [17] of 268.91 µM.

Consider `CN1[C@@H]2c3ccc(-c4cccnc4)c(=O)n3C[C@@H]2[C@@H](CO)[C@@H]1C(=O)N1CCc2ccccc2C1`, for which the AC50 (in the experiment with HEK293; in experiment [18]) was > 52 µM (inactive) each time.

For `C[C@@H]1CN([C@@H](C)CO)C(=O)c2cc(NC(=O)Nc3ccc(C(F)(F)F)cc3)ccc2O[C@@H](C)CCCCO[C@@H]1CN(C)Cc1ccc2c(c1)OCO2`, the AC50 in [19] was 56.1 µM (active); at Paired box protein Pax-8 it was 5.64 µM (active); in [6], 57.3 µM (active).

(Values after ChEMBL document CHEMBL1201862, “PubChem BioAssay data set” (2004).)
